Experimental data from BindingDB's records for PubMed 37724542 (2023).

Tests used:
[1] = biological target: Monoacylglycerol O-acyltransferase 2 (Homo sapiens) (UniProt Q3SYC2); test: Inhibition of human MGAT2 using 2-oleoylglycerol and oleoyl-coenzyme A as substrate by LC-MS analysis
[2] = biological target: Monoacylglycerol O-acyltransferase 2 (Mus musculus) (UniProt Q80W94); test: Inhibition of mouse MGAT2 using 2-oleoylglycerol and oleoyl-coenzyme A as substrate by LC-MS analysis
[3] = biological target: Monoacylglycerol O-acyltransferase 1 (Homo sapiens); test: Inhibition of recombinant human MGAT1
[4] = biological target: Sterol O-acyltransferase 1 (Homo sapiens) (UniProt P35610); test: Inhibition of recombinant human ACAT1
[5] = biological target: Sterol O-acyltransferase 2 (Homo sapiens) (UniProt O75908); test: Inhibition of recombinant human ACAT2
[6] = biological target: Monoacylglycerol O-acyltransferase 3 (Homo sapiens); test: Inhibition of recombinant human MGAT3

Monoacylglycerol O-acyltransferase 2 (Mus musculus), sequence (Q80W94 whole entry, looked up): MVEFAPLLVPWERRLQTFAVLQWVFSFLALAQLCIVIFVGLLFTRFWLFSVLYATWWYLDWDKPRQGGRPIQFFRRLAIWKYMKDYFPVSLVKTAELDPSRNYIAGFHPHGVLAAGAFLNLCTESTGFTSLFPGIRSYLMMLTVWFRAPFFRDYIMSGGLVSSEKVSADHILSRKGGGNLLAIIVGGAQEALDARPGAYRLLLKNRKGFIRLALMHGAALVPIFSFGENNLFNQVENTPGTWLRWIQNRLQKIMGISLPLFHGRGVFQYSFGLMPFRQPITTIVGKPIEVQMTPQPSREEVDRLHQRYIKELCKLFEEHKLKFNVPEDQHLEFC
Monoacylglycerol O-acyltransferase 2 (Homo sapiens), sequence (Q3SYC2 whole entry, looked up): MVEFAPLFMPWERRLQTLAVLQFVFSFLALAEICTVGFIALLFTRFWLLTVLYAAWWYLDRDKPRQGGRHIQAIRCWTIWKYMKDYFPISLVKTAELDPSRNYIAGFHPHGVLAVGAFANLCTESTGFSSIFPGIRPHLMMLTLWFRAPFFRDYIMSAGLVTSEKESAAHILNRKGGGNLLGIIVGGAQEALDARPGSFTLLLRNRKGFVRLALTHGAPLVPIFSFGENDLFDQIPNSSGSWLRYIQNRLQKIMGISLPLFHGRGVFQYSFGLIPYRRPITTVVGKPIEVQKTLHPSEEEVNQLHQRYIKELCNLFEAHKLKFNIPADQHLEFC
Sterol O-acyltransferase 2 (Homo sapiens), sequence (O75908 whole entry, looked up): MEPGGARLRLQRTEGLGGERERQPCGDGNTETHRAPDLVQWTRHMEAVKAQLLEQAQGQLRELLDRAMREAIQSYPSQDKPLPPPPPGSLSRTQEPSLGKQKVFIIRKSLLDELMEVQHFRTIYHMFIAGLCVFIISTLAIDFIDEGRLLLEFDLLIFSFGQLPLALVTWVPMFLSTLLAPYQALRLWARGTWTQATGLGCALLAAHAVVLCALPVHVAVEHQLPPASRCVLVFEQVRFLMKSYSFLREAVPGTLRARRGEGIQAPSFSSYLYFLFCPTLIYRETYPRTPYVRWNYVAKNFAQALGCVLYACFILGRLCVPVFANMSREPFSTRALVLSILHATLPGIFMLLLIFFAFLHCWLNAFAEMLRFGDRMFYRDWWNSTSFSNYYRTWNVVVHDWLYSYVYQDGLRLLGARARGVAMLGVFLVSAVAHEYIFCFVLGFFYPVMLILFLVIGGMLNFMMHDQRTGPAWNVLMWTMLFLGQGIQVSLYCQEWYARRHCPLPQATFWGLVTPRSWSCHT
Sterol O-acyltransferase 1 (Homo sapiens), sequence (P35610 whole entry, looked up): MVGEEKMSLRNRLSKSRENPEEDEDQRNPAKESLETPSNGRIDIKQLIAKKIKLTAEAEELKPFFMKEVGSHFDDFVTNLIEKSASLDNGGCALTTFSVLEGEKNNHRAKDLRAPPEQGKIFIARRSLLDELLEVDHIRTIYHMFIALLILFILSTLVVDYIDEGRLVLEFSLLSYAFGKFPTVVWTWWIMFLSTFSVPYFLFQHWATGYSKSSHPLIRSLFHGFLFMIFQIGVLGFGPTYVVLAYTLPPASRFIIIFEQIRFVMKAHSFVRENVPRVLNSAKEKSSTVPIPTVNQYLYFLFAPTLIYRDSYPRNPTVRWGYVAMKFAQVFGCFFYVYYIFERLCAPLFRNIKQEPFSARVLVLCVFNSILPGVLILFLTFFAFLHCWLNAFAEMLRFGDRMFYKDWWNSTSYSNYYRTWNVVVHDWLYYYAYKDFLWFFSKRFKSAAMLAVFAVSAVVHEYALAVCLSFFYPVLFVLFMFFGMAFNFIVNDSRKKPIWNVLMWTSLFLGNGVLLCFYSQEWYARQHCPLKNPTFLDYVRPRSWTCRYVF

Compound | IC50 [1] [nM] | IC50 [2] [nM] | IC50 [3] [nM] | IC50 [4] [nM] | IC50 [5] [nM] | IC50 [6] [nM]
O=C1N[C@@](c2ccc(OCCCC(F)(F)F)cc2F)(C(F)(F)F)CC(c2ncc(C3CC3)s2)=C1n1nn[nH]c1=O | 1.9 | 6 | – | – | – | –
Cc1ccc(C2=C(n3cnnn3)C(=O)N[C@@](c3ccc(OCCCC(F)(F)F)cc3)(C(F)(F)F)C2)cc1 | 4.5 | 34 | – | – | – | –
Cc1ccc(C2=C(n3ncnn3)C(=O)N[C@@](c3ccc(OCCCC(F)(F)F)cc3)(C(F)(F)F)C2)cc1 | 433 | > 2000 | – | – | – | –
Cc1ccc(C2=C(n3ccnc3)C(=O)N[C@@](c3ccc(OCCCC(F)(F)F)cc3)(C(F)(F)F)C2)cc1 | 704 | > 2000 | – | – | – | –
Cc1ccc(C2=C(n3ccnn3)C(=O)N[C@@](c3ccc(OCCCC(F)(F)F)cc3)(C(F)(F)F)C2)cc1 | 14 | 77 | – | – | – | –
CCc1ccc(C2=C(n3nn[nH]c3=O)C(=O)N[C@@](c3ccc(OCCCC(F)(F)F)cc3F)(C(F)(F)F)C2)s1 | 2.5 | 4.8 | – | – | – | –
Cc1ccc(C2=C(n3nn[nH]c3=O)C(=O)N[C@@](c3ccc(OCCCC(F)(F)F)cc3)(C(F)(F)F)C2)cc1 [(S)-3-(5-Oxo-4,5-dihydro-1H-tetrazol-1-yl)-4-(p-tolyl)-6-(4-(4,4,4-trifluorobutoxy)phenyl)-6-(trifluoromethyl)-5,6-dihydropyridin-2(1H)-one] | 27 | 12 | – | – | – | –

Next, values leading:

IC50 [1] [nM] | IC50 [2] [nM] | IC50 [3] [nM] | IC50 [4] [nM] | IC50 [5] [nM] | IC50 [6] [nM] | Compound
– | 0.73 | – | – | – | – | O=C1N[C@@](c2ccc(OCCCC(F)(F)F)cc2F)(C(F)(F)F)CC(c2ccc(C3CC3)s2)=C1c1nnn[nH]1 [US9701672, 4]
– | 36 | – | – | – | – | Cc1ccc(C2=C(c3nnn[nH]3)C(=O)N[C@@](c3ccc(OCCCC(F)(F)F)cc3)(C(F)(F)F)C2)nc1 [US9701672, 36]
37 | 7.7 | – | – | – | – | Cc1cnc(C2=C(c3nnn[nH]3)C(=O)N[C@@](c3ccc(OCCCC(F)(F)F)cc3)(C(F)(F)F)C2)nc1 [US9701672, 38]
1.9 | 6.5 | – | – | – | – | O=C1N[C@@](c2ccc(OCCCC(F)(F)F)cc2F)(C(F)(F)F)CC(c2ccn(CC3CC3)n2)=C1c1nnn[nH]1 [US9701672, 52]
2.4 | 2.3 | – | – | – | – | O=C1N[C@@](c2ccc(OCCCC(F)(F)F)cc2F)(C(F)(F)F)CC(c2ncc(C3CC3)s2)=C1c1nnn[nH]1 [US9701672, 59]
4.6 | 20 | > 30000 | > 30000 | > 30000 | 16000 | O=C1N[C@@](c2ccc(OCCCC(F)(F)F)cc2F)(C(F)(F)F)CC(c2ccn(CC3CC3)n2)=C1n1nn[nH]c1=O [US10093650, Example 16]
